The text below walks through data of patent US10420734B2, “Method of treating cancer using selective estrogen receptor modulators” (Duke University, priority 2014, dated 2019).

Data set [1] relates to MCF7 xenograft tumors. Kind of data set: MCF7 xenograft tumor study in estrogen-treated ovariectomized nu/nu mice. The conditions noted are these: 20 mg/kg sc daily. It is filed as in vivo. The protocol:
A total of 90 female Nu/Nu mice were ovariectomized and implanted subcutaneous simultaneously with an estrogen pellet (Innovative Research of America) releasing 0.72 mg estradiol (E2) over 60 days. 2 days later an approximately 6 mm^3 fragment of an MCF7 xenograft tumor (isolated from a recently sacrificed estrogen treated nu/nu mouse) was inserted subcutaneous into the axial mammary gland. Tumor growth (by caliper measurement) and animal body weight were monitored 3× weekly until tumor volume reached ˜0.2 cm^3. […] Treatments were formulated in sterile corn oil and were administered daily by subcutaneous injection. After 3 weeks of treatments, animals were euthanized and serum and tissues saved for analysis. FIG. 1B depicts tumor volume analyzed using non-linear curve fit and exponential growth calculation (Graphpad Prism), followed by two-way ANOVA and Bonferroni analysis.
Xenograft tumor analysis: Estrogen-stimulated MCF7 tumors were initiated in the axial mammary gland of 6-week old estrogen-treated (0.72 mg/60 days pellet sc, Innovative Research of America) ovariectomized female NU/NU mice (in-house colony) by serial transfer and were measured as described (Wardell et al., (2013) Clin Cancer Res 19 (9):2420-2431). […] Animal tissues were processed and analyzed as described (Wardell et al., (2013) Clin Cancer Res 19 (9):2420-2431).
The ability of RAD1901 (FIG. 5A) to modulate the […] estradiol (E2) dependent transcriptional activity of the human estrogen receptor alpha (ESR1) and human estrogen receptor beta (ESR2) was assessed in transiently transfected SKBR3 cells using a synthetic reporter gene. […] DNA content as assessed by fluorescence was measured as a surrogate for cell proliferation. The relative increase in DNA fluorescence was calculated by normalizing to baseline values detected in a duplicate plate of cells that was harvested on day 1 prior to the initial treatment. […] For FIG. 5F, expression of ESR1 target genes in tumors was analyzed essentially as in (C).

Data set [2] deals with LTED MCF7 cells. Kind of data set: LTED MCF7 cell proliferation assay. It is filed as cell-based. The conditions noted are these: model of aromatase resistance, 10^-11-10^-6 M, 8 day assay.
Data set [3] relates to MCF7 xenograft tumors. Kind of data set: MCF7 xenograft tumor study after estrogen pellet removal. Type of data set: in vivo, mice. The protocol:
Xenograft tumor analysis: Estrogen-stimulated MCF7 tumors were initiated in the axial mammary gland of 6-week old estrogen-treated (0.72 mg/60 days pellet sc, Innovative Research of America) ovariectomized female NU/NU mice (in-house colony) by serial transfer and were measured as described (Wardell et al., (2013) Clin Cancer Res 19 (9):2420-2431). […] FIG. 9: At ˜0.1 cm^3 tumor volume, the estrogen pellet was surgically removed, and mice were randomized (n=6-10) to daily treatment with vehicle or RAD1901 (0.3-10 mg/kg). Treatments were formulated as above. Animal tissues were processed and analyzed as described (Wardell et al., (2013) Clin Cancer Res 19 (9):2420-2431).
As shown above, high dose RAD1901 (20 mg/kg) inhibited the growth of ESR1-dependent MCF7-cell derived tumors in mice. However, the observation that uterine wet weight was increased in mice treated with doses of RAD1901 that were lower than that required to effect ESR1 turnover highlighted the need to examine whether a similar biphasic pharmacology was manifest in breast tumors. To further evaluate the pharmacology of RAD1901, a second xenograft tumor study was conducted in which MCF7 tumors were established under estrogen stimulation. For FIG. 9A, MCF7 xenograft tumors were initiated in ovariectomized female nu/nu mice as in FIG. 5. Estrogen pellets were surgically removed when tumors reached ˜0.1 cm^3 volume, and animals (n=6-10) then received daily treatment with vehicle or RAD1901 (RAD), (0.3-10 mg/kg sc). Mean tumor volume+/−SEM per day of treatment was presented. Significance as compared to the vehicle (2-way ANOVA of matched values followed by Bonferroni comparison) was indicated (*p<0.05, **p<0.0005). For FIG. 9B, uterine wet weight at sacrifice (measured as in FIG. 8) and % change in tumor volume (as compared to size at randomization) calculated using the final measurement recorded for mice in (FIG. 9A) are graphically presented. For FIGS. 9C-9D, expression of ESR1 target genes in tumors was analyzed essentially as in FIG. 5. Estrogen only samples from FIG. 5D were included for comparison. For FIG. 9E, ESR1 levels in tumor tissues were analyzed as in FIG. 8 and were normalized to similarly detected Lamin-A. Significant downregulation (*p<0.05) was determined by ANOVA followed by Bonferroni comparison.

For data set [4] the following is noted: cited from earlier work.

Read-outs that look alike come from different tables or passages of the source.

For `CCNCCc1ccc(CN(CC)c2cc(OC)ccc2[C@@H]2CCc3cc(O)ccc3C2)cc1` [RAD1901, (R)-6-{2-{ethyl[4-(2-ethylaminoethyl)benzyl]amino}-4-methoxyphenyl}-5,6,7,8-tetrahydronaphthalen-2-ol], in data set [1], the “E2-stimulated growth of MCF7 tumors” value is recorded as “inhibited E2-stimulated growth of the tumors with efficacy similar to tamoxifen”; the “expression of ESR1-target genes PGR and FHL1 in treated tumors” value is “suppress the expression of the ESR1-target genes PGR and FHL1 to the same degree”. The cell proliferation entry in data set [2] is recorded as “inhibited cell proliferation”. Moreover, the “ESR1 levels in tumor extracts (immunoblot)” value in data set [3] (0.3-10 mg/kg) is “dose-dependent downregulation”. The final tumor size result in data set [3] (1 or 3 mg/kg groups) is recorded as “significantly increased”. Besides, in data set [3] (1 or 3 mg/kg sc daily), the “tumor growth after estrogen withdrawal” value was “significant stimulation of tumor growth”. In addition, in data set [3] (1 or 3 mg/kg treatment groups), the “expression of AGR2 in tumors” value is recorded as “observed” and the “expression of classical ESR1 target genes such as PGR in tumors” value was “not observed”. Moreover, the “tumor growth after estrogen withdrawal” value in data set [3] (higher dose (10 mg/kg) sc daily) is on record as “not apparent at the higher dose”. Besides, in data set [3] (nu/nu mice, 0.3-10 mg/kg sc daily), the “uterine wet weight at sacrifice” value is reported as “stimulation of uterine weight was apparent in mice treated with only the 0.3 mg/kg dose”. In addition, in data set [4] (healthy postmenopausal women), the “induction of hot flashes” value is “induces hot flashes in healthy postmenopausal women in a dose dependent manner”. Besides, the “hot flashes in clinical trials” value in data set [4] (higher doses tested) is reported as “ineffective”. In addition, the “hot flashes in clinical trials” value in data set [4] (lowest dose tested) is given as “effectively suppress hot flashes”. Besides, the brain penetrance result in data set [4] (postmenopausal women) is “significant brain penetrance”.
